From the supplement of paper PMC10307832

What was measured:
Assay in all cases: relative viability (nuclei count vs DMSO), 5 days (fraction); higher = more cells survive
Salubrinal + Trametinib = compound: O=C(/C=C/c1ccccc1)NC(NC(=S)Nc1cccc2cccnc12)C(Cl)(Cl)Cl [Salubrinal] + CC(=O)Nc1cccc(-n2c(=O)n(C3CC3)c(=O)c3c(Nc4ccc(I)cc4F)n(C)c(=O)c(C)c32)c1 [Trametinib] (partner 0.02 µM)
Outline: (§1)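 Cells from lung cancer lines were seeded into 1536-well plates and, one day later, dosed by pin tool. Treatments were either a single drug or a fixed dose of an anchor drug with five library-drug doses (not always all listed) in √10 steps. After 5 days, nuclei were stained in a one-step fixation (final 0.05% Triton X-100, 1% formaldehyde, 1 ug/ml Hoechst) and counted on 4× images, and relative viability is the treated-to-vehicle nuclei ratio, as the median of duplicate plates.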

Salubrinal + Pictilisib = compound: O=C(/C=C/c1ccccc1)NC(NC(=S)Nc1cccc2cccnc12)C(Cl)(Cl)Cl [Salubrinal] + CS(=O)(=O)N1CCN(Cc2cc3nc(-c4cccc5[nH]ncc45)nc(N4CCOCC4)c3s2)CC1 [Pictilisib] (partner 1 µM)
Outline: as §1

Salubrinal + Vorinostat = compound: O=C(/C=C/c1ccccc1)NC(NC(=S)Nc1cccc2cccnc12)C(Cl)(Cl)Cl [Salubrinal] + O=C(CCCCCCC(=O)Nc1ccccc1)NO [Vorinostat] (partner 1 µM)
Outline: as §1

[1] = compound: Cc1ccc2nc(NCCN)c3ncc(C)n3c2c1 + N=C(N)NC(=N)NCCc1ccccc1 [Phenformin] (partner 250 µM)
Outline: as §1

Row | Cell Line | relative viability (Salubrinal + Trametinib; first compound 0.08 µM) | relative viability (Salubrinal + Trametinib; first compound 0.253 µM) | relative viability (Salubrinal + Trametinib; first compound 0.8 µM) | relative viability (Salubrinal + Trametinib; first compound 2.53 µM) | relative viability (Salubrinal + Trametinib; first compound 8 µM) | relative viability (Salubrinal + Pictilisib; first compound 0.08 µM) | relative viability (Salubrinal + Pictilisib; first compound 0.253 µM) | relative viability (Salubrinal + Pictilisib; first compound 0.8 µM) | relative viability (Salubrinal + Pictilisib; first compound 2.53 µM) | relative viability (Salubrinal + Pictilisib; first compound 8 µM) | relative viability (Salubrinal + Vorinostat; first compound 0.08 µM) | relative viability (Salubrinal + Vorinostat; first compound 0.253 µM) | relative viability (Salubrinal + Vorinostat; first compound 0.8 µM) | relative viability (Salubrinal + Vorinostat; first compound 2.53 µM) | relative viability (Salubrinal + Vorinostat; first compound 8 µM) | relative viability ([1]; first compound 0.04 µM) | relative viability ([1]; first compound 0.1265 µM) | relative viability ([1]; first compound 0.4 µM) | relative viability ([1]; first compound 1.265 µM) | relative viability ([1]; first compound 4 µM)
1 | NCI-H1944 | 0.451 | 0.448 | 0.403 | 0.399 | 0.374 | 0.349 | 0.328 | 0.362 | 0.348 | 0.307 | 0.69 | 0.54 | 0.662 | 0.504 | 0.645 | 0.201 | 0.196 | 0.201 | 0.187 | 0.195
2 | EPLC-272H | 0.305 | 0.298 | 0.298 | 0.314 | 0.298 | 0.293 | 0.282 | 0.355 | 0.33 | 0.24 | 0.464 | – | 0.539 | 0.427 | 0.336 | 0.317 | 0.397 | 0.383 | 0.373 | 0.294
3 | PC-3 [JPC-3] | 0.734 | 0.697 | 0.65 | 0.693 | 0.651 | 0.796 | 0.666 | 0.714 | 0.727 | 0.702 | 0.713 | 0.71 | 1.07 | 0.934 | 0.762 | 0.503 | 0.475 | 0.459 | 0.497 | 0.423
4 | NCI-H650 | 1.1 | 0.94 | 1.08 | 1 | 0.976 | 0.678 | 1.1 | 0.968 | 0.916 | 0.842 | 0.477 | 0.494 | 0.382 | 0.48 | 0.404 | 0.462 | 0.476 | 0.437 | 0.441 | 0.425
5 | NCI-H838 | 0.657 | 0.678 | 0.534 | 0.518 | 0.552 | 0.361 | 0.408 | 0.496 | 0.435 | 0.282 | 0.764 | 0.736 | 0.728 | 0.697 | 0.751 | 0.655 | 0.602 | 0.587 | 0.543 | 0.568
6 | COR-L 105 | 0.466 | 0.559 | 0.407 | 0.477 | 0.449 | 0.419 | 0.358 | 0.406 | 0.349 | 0.421 | 1.08 | 0.816 | 0.843 | 0.797 | 0.747 | 0.647 | 0.555 | 0.502 | 0.487 | 0.425
7 | NCI-H2405 | 0.653 | 0.625 | 0.594 | 0.605 | 0.557 | 0.338 | 0.442 | 0.458 | 0.406 | 0.431 | 0.998 | 1.06 | 1.22 | 1.04 | 0.99 | 0.417 | 0.385 | 0.451 | 0.371 | 0.375
8 | NCI-H1395 | 1.15 | 1.15 | 1.18 | 0.972 | 1.02 | 0.621 | 0.651 | 0.609 | 0.603 | 0.504 | 0.617 | 0.768 | 1.09 | 0.901 | 0.558 | 0.45 | 0.498 | 0.412 | 0.419 | 0.46
9 | NCI-H661 | 0.781 | 0.523 | 0.574 | 0.577 | 0.546 | 0.434 | 0.196 | 0.443 | 0.384 | 0.569 | 0.839 | 0.739 | 0.852 | 0.806 | 0.793 | 0.26 | 0.375 | 0.254 | 0.293 | 0.308
10 | NCI-H1915 | 0.219 | – | 0.583 | 0.314 | 0.311 | 0.855 | 0.942 | 0.999 | 0.946 | 0.953 | 0.516 | – | 0.614 | 0.521 | 0.471 | 0.359 | 0.384 | – | 0.377 | 0.359
11 | CAL-12T | 0.378 | 0.406 | 0.327 | 0.244 | 0.269 | 0.392 | 0.488 | 0.438 | 0.734 | 0.528 | 0.903 | 0.676 | 0.989 | 0.681 | 0.672 | 0.567 | 0.491 | 0.536 | 0.59 | 0.542
12 | LXF-289 | 0.747 | 0.59 | 0.7 | 0.702 | 0.681 | 0.871 | 0.728 | 0.829 | 0.778 | 0.731 | 0.897 | 0.707 | 0.908 | 0.873 | 0.76 | 0.528 | 0.546 | 0.543 | 0.486 | 0.524
13 | NCI-H460 | 0.114 | 0.24 | 0.125 | 0.121 | 0.126 | 0.261 | 0.296 | 0.398 | 0.482 | 0.518 | 1.18 | 0.74 | 0.976 | 0.713 | 0.511 | 0.515 | 0.512 | 0.525 | 0.539 | 0.394
14 | NCI-H2009 | 0.345 | 0.262 | 0.271 | 0.287 | 0.222 | 0.976 | 0.857 | 1.02 | 0.756 | 0.749 | 0.815 | 0.785 | 0.696 | 0.693 | 0.657 | 0.514 | 0.399 | 0.489 | 0.401 | 0.393
